# PMC4319922, “WIP1 Phosphatase as a Potential Therapeutic Target in Neuroblastoma” (PLoS ONE, 2015)
# Molecular target: T1, WIP1 (wild-type p53-induced phosphatase 1, PPM1D) (Homo sapiens, UniProt O15297)
# T1 construct: WIP1-ΔExon6-His-pET-23a+ construct
# T1 sequence (O15297 1-420 limits assumed): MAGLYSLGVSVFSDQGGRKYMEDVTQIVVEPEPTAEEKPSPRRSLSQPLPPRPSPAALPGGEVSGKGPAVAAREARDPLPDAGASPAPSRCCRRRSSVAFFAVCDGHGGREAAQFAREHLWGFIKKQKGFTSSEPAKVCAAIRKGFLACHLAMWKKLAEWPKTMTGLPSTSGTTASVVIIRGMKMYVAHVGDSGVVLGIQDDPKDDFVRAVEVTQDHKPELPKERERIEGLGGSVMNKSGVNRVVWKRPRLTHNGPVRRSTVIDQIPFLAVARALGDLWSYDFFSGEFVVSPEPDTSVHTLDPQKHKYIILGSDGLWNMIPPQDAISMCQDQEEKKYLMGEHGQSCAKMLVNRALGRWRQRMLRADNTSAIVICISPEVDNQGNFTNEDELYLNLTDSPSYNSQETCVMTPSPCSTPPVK
# Test: in vitro phosphatase assay, free phosphate release (BIOMOL Green), H2AX pS139 phosphopeptide substrate (p53 pS15 peptide:[…])
# Type: biochemical
structure (smiles),measurement,value
Cc1ncc(Cl)cc1NCc1ccc(C(=O)N[C@@H](CC2CCCC2)C(=O)NC2CC2)s1 [GSK2830371],IC50,123 nM
